# Laboratory results as given in patent EP2322194A2 (Reprise Biopharmaceutics, LLC, priority 2003, dated 2005).
# Where “and” joins values, the source holds several entries; their conditions need not be identical. Equal values may be shown once. Read-outs that look alike come from different tables or passages of the source.
# Tested on: over-hydrated, healthy, non-smoking male and female volunteers
# Format: in vivo, human
# Details: for Mean peak urine osmolality: at 2 hours; for Mean nadir urine output: end of 2 hour infusion; for Urine Output / Urine Osmolality: individual subjects
# Description: Briefly, an open-label, crossover study with 8 healthy, over-hydrated, non-smoking male and female volunteers, age 18-40. The subjects were dosed initially with 0.5 ng/kg dose, then with the 1.0 ng/kg dose and finally the 2.0 ng/kg dose. Pharmacodynamic and pharmacokinetic parameters were evaluated at each dose level. A washout period of two days (48 hours) was observed between dosing. Eight subjects evaluated in this study, 5 males, and 3 females. […] Each subject remained in the clinic from one day prior to first dosing to one day after last dosing for a total of 7 days. […] At this point over-hydration was discontinued. […] Urine-specific gravity was also measured. […] This same procedure was followed for the 1.0 ng/kg and 2.0 ng/kg infusions. […] Criteria for evaluation in the study included urine output over time, urine osmolality over time, urine-specific gravity over time, and […] osmolality and sodium over time. Statistical analysis on the above criteria was performed. The statistical analysis is descriptive and all statistical hypothesis testing was done for exploratory purposes. […] The second and third estimation used 200 mOsm/kg and 400 mOsm/kg as cut off levels for 'onset' and 'end' of action, respectively. […] The overall duration of action was estimated for each dose group using the nonparametric Kaplan-Meier method. […] Furthermore, the duration of action was presented for each treatment group using the mean, SD, median, minimum and maximum values. The dose-response relationship between duration of action and dose was investigated using an appropriate linear or nonlinear model.
# [1] = 0.5 ng/kg, time 0 min (baseline)
# [2] = 0.5 ng/kg, time -20 min (baseline)
# [3] = 1.0 ng/kg, time 0 min (baseline)
substance,measurement,setting,value
1-desamino-8-D-arginine vasopressin [desmopressin],duration of antidiuretic effect,0.5 ng/kg dose,approximately 180 minutes
same,Mean peak urine osmolality,0.5 ng/kg dose,206.0 mOsm/kg
same,Baseline mean urine osmolality,0.5 ng/kg dose,55.8 mOsm/kg
same,Baseline mean urine output,0.5 ng/kg dose,18.6 mL/min
same,Mean nadir urine output,0.5 ng/kg dose,7.1 mL/min
same,"Urine Osmolality, Mean",[1],57.6 mOsm/kg
same,"Urine Output, Mean",[1],18.4 mL/min
same,"Urine Osmolality, Mean","0.5 ng/kg, time 20 min",73.1 mOsm/kg
same,Urine Output,"0.5 ng/kg, time 20 min",16.7 mL/min (2×) and 16.4 mL/min and 11.8 mL/min
same,"Urine Osmolality, Mean","0.5 ng/kg, time 40 min",108.3 mOsm/kg
same,"Urine Output, Mean","0.5 ng/kg, time 40 min",10.3 mL/min
same,"Urine Osmolality, Mean","0.5 ng/kg, time 60 min",136.1 mOsm/kg
same,"Urine Output, Mean","0.5 ng/kg, time 60 min",9.6 mL/min
same,"Urine Osmolality, Mean","0.5 ng/kg, time 80 min",165.8 mOsm/kg
same,"Urine Osmolality, Mean","0.5 ng/kg, time 100 min",186.3 mOsm/kg
same,"Urine Output, Mean","0.5 ng/kg, time 100 min",7.7 mL/min
same,"Urine Osmolality, Mean","0.5 ng/kg, time 120 min",206.0 mOsm/kg
same,"Urine Output, Mean","0.5 ng/kg, time 120 min",7.1 mL/min
same,"Urine Osmolality, Mean","0.5 ng/kg, time 140 min",188.3 mOsm/kg
same,"Urine Output, Mean","0.5 ng/kg, time 140 min",9.6 mL/min
same,"Urine Osmolality, Mean","0.5 ng/kg, time 160 min",155.8 mOsm/kg
same,"Urine Output, Mean","0.5 ng/kg, time 160 min",9.7 mL/min
same,"Urine Osmolality, Mean","0.5 ng/kg, time 180 min",136.8 mOsm/kg
same,"Urine Output, Mean","0.5 ng/kg, time 180 min",11.1 mL/min
same,"Urine Osmolality, Mean","0.5 ng/kg, time 200 min",157.8 mOsm/kg
same,"Urine Output, Mean","0.5 ng/kg, time 200 min",10.4 mL/min
same,"Urine Osmolality, Mean","0.5 ng/kg, time 220 min",136.5 mOsm/kg
same,"Urine Output, Mean","0.5 ng/kg, time 220 min",10.4 mL/min
same,"Urine Osmolality, Mean","0.5 ng/kg, time 240 min",141.7 mOsm/kg
same,Urine Output,"0.5 ng/kg, time 240 min",10.5 mL/min and 11.4 mL/min and 4.2 mL/min
same,"Urine Osmolality, Mean","0.5 ng/kg, time 260 min",147.5 mOsm/kg
same,"Urine Output, Mean","0.5 ng/kg, time 260 min",9.7 mL/min
same,Urine Osmolality,"0.5 ng/kg, time 260 min",80 mOsm/kg and 215 mOsm/kg
same,"Urine Osmolality, Mean","0.5 ng/kg, time 280 min",169.0 mOsm/kg
same,Urine Osmolality,"0.5 ng/kg, time 280 min",88 mOsm/kg and 250 mOsm/kg
same,"Urine Osmolality, Mean","0.5 ng/kg, time 300 min",193.0 mOsm/kg
same,"Urine Output, Mean","0.5 ng/kg, time 300 min",4.1 mL/min
same,Urine Osmolality,"0.5 ng/kg, time 300 min",193 mOsm/kg
same,Urine Output,"0.5 ng/kg, time 300 min",4.1 mL/min
same,"Urine Osmolality, Mean","0.5 ng/kg, time 320 min",156.0 mOsm/kg
same,"Urine Output, Mean","0.5 ng/kg, time 320 min",5.0 mL/min
same,Urine Osmolality,"0.5 ng/kg, time 320 min",156 mOsm/kg
same,Urine Output,"0.5 ng/kg, time 320 min",5 mL/min
same,"Urine Osmolality, Mean","0.5 ng/kg, time 340 min",133.0 mOsm/kg
same,"Urine Output, Mean","0.5 ng/kg, time 340 min",6.4 mL/min
same,Urine Osmolality,"0.5 ng/kg, time 340 min",133 mOsm/kg
same,Urine Output,"0.5 ng/kg, time 340 min",6.4 mL/min
same,"Urine Osmolality, Mean","0.5 ng/kg, time 360 min",120.0 mOsm/kg
same,"Urine Output, Mean","0.5 ng/kg, time 360 min",7.3 mL/min
same,Urine Osmolality,"0.5 ng/kg, time 360 min",120 mOsm/kg
same,Urine Output,"0.5 ng/kg, time 360 min",7.3 mL/min
same,"Urine Osmolality, Mean",[2],55.8 mOsm/kg
same,"Urine Output, Mean",[2],18.6 mL/min
same,Mean peak urine osmolality,1.0 ng/kg dose,444.7 mOsm/kg
same,Baseline mean urine osmolality,1.0 ng/kg dose,55.8 mOsm/kg
same,Baseline mean urine output,1.0 ng/kg dose,16.6 mL/min
same,Mean nadir urine output,1.0 ng/kg dose,1.3 mL/min
same,"Urine Osmolality, Mean",[3],56.5 mOsm/kg
same,"Urine Output, Mean",[3],16.7 mL/min
same,Urine Output,[3],17.4 mL/min
same,"Urine Osmolality, Mean","1.0 ng/kg, time 20 min",67.1 mOsm/kg
same,Urine Output,"1.0 ng/kg, time 20 min",11.2 mL/min and 10.4 mL/min
same,"Urine Osmolality, Mean","1.0 ng/kg, time 40 min",167.0 mOsm/kg
same,"Urine Output, Mean","1.0 ng/kg, time 40 min",7.0 mL/min
same,Urine Output,"1.0 ng/kg, time 40 min",5.7 mL/min and 7.6 mL/min
same,"Urine Osmolality, Mean","1.0 ng/kg, time 60 min",259.4 mOsm/kg
same,"Urine Output, Mean","1.0 ng/kg, time 60 min",3.7 mL/min
same,Urine Output,"1.0 ng/kg, time 60 min",3.5 mL/min
same,"Urine Osmolality, Mean","1.0 ng/kg, time 80 min",322.8 mOsm/kg
same,"Urine Output, Mean","1.0 ng/kg, time 80 min",2.0 mL/min
same,Urine Output,"1.0 ng/kg, time 80 min",0 mL/min
same,"Urine Osmolality, Mean","1.0 ng/kg, time 100 min",375.5 mOsm/kg
same,"Urine Output, Mean","1.0 ng/kg, time 100 min",2.5 mL/min
same,Urine Output,"1.0 ng/kg, time 100 min",3.7 mL/min
same,"Urine Osmolality, Mean","1.0 ng/kg, time 120 min",444.7 mOsm/kg
same,"Urine Output, Mean","1.0 ng/kg, time 120 min",1.3 mL/min
same,Urine Output,"1.0 ng/kg, time 120 min",0 mL/min
